Assay results from patent US20250179028A1, “ACRYLAMIDE COMPOUNDS” (NRG THERAPEUTICS LTD, priority 2022, published 2025).

Tested on: mPTP
Experiment: mPTP mitochondria membrane potential flow cytometry assay in stimulated human platelets
Assay type: cell-based
Procedure: The mPTP cell based assay was performed using a mitochondria membrane potential flow cytometry assay in stimulated human platelets. Simulation of platelets results in the rapid influx of Ca^2+ across the platelet membrane. The Ca^2+ is then sequestered by mitochondria until the threshold for mPTP opening is reached, at which point the pore opens and the mitochondrial membrane potential is dissipated. Changes in mitochondria membrane potential due to mPTP opening can be quantified in live platelets using standard mitochondrial membrane potential dyes e.g. 3,3′-dihexyloxacarbocyanine Iodide; DiOC6(3), enabling pharmacological characterisation of mPTP inhibitors.
Fresh human blood (20 ml) was collected from consenting donors into 3.2% sodium citrate. Platelets were isolated by centrifugation at 200 g for 20 min at room temperature, then the platelet rich plasma layer transferred to a fresh tube. Prostaglandin 12 is added to the platelets at a final concentration of 20 ng/ml. After centrifugation at 640 g for 10 min, the platelet rich pellet was resuspended in 4 ml HEPES assay buffer (137 mM NaCl, 2.7 mM KCl, 11.9 mM NaHCO3, 0.42 mM NaH2PO4, 1 mM MgCl2, 5.5 mM glucose, 0.1% bovine serum albumin, 10 mM HEPES adjusted to pH 7.4) and stored on ice.
Test compounds were prepared from 10 mM stocks in DMSO and serially diluted in assay buffer containing 0.4% DMSO and 25 μl transferred into a 96 well plate. Platelets were loaded with the mitochondrial membrane potential dye DiOC6(3) (3,3′-dihexyloxacarbocyanine Iodide; Invitrogen) at 200 nM for 30 min, then 50 μl plated into each well of the 96 well plate containing diluted test compound and incubated for 15 min. Control wells included DMSO (0.1% final concentration) only or 5 μM cyclosporin A. Platelets were then stimulation with the addition of assay buffer (25 μl) containing CaCl2, alpha thrombin and Convulxin to achieve a final concentrations of 2 mM, 0.017 U/ml and 0.167 μg/ml respectively and incubated for 14 min. The reaction was stopped by the addition of 25 μl 15 mM EDTA in assay buffer. The mitochondrial membrane potential across the population of platelets in each well was then quantified by flow cytometry using a Guava easyCyte 5 Benchtop Flow Cytometer with 3000 events per well. The percentage of platelets with a depolarised mitochondrial membrane potential was calculated for each well. A pIC50 for each compound was then calculated using a standard four parameter curve fit model (GraphPad Prism).

mPTP Human Platelets pIC50	SMILES
6.9	Cc1c(F)cccc1NC(=O)/C=C/c1ccc2cn[nH]c2c1 [Comparative Example 1, (E)-N-(2-methyl-3-fluorophenyl)-3-(1H-indazol-6-yl)acrylamide, reference compound]
7.0	Cc1c(F)cccc1NC(=O)/C=C/c1ccc2oc(=O)[nH]c2c1 [Example 6, (E)-N-(3-fluoro-2-methylphenyl)-3-(2-oxo-2,3-dihydrobenzo[d]oxazol-5-yl)acrylamide]
7.0	Cc1c(F)cccc1NC(=O)/C=C/c1ccc2c(c1)NC(=O)C2 [Example 10, (E)-N-(3-fluoro-2-methylphenyl)-3-(2-oxoindolin-6-yl)acrylamide]
7.2	Cc1c(F)cccc1NC(=O)/C=C/c1ccc2c(c1)[nH]c(=O)n2C [Example 7, (E)-N-(3-fluoro-2-methylphenyl)-3-(1-methyl-2-oxo-2,3-dihydro-1H-benzo[d]imidazol-5-yl)acrylamide]
